Test results taken from patent US9233099B2, “Methods of treating cognitive dysfunction by modulating brain energy metabolism” (University of Cincinnati, priority 2012, dated 2016).

Columns and labels:
[1] = system: person with X-linked creatine transporter deficiency (CTD); experiment: Creatine treatment of a child with X-linked creatine transporter deficiency; assay type: in vivo, human; conditions: increasing doses to 750 mg/kg/day, discontinued after 6 months
From the text: This example illustrates that administration of creatine to a person with X-linked creatine transporter deficiency (CTD) fails to increase brain creatine or to ameliorate clinical symptoms associated with decreased brain levels of creatine. […] Several female family members were identified as heterozygote carriers of this disorder, and appear to have decreased Cr. The child had severe expressive dysphasia with other cognitive functions less affected. […] In the absence of demonstrable benefit, the creatine treatment was discontinued after 6 months.

CRT KO mice [2] = experiment: Novel Object Recognition test; assay type: in vivo; conditions: before and after 9-week supplementation, 0.286 mg/g body weight/day
From the text: Regarding FIG. 3, CRT brain-specific knockout male mice (CRT′ or CRT KO mice) and their control littermates (CrTf1″5″) were generated by the methods known in the art (e.g., by using the Cre-lox system and homologous recombination as described in Sauer B., Methods, 1998, 14, 381-392; the strategy for targeting the gene deletion to the brain region was based on the data described in Casanova E. et al., Genesis 2001, 31, 37-42). […] A total 29 CRT KO male mice (CRT^/y) and 28 control male mice (CRT^flox/y) at 12 months of age were used in the cyclocreatine supplementation study. The mice were randomly assigned to one of three groups that were started on one of three treatments for 9 weeks: 1) cyclocreatine (C-Cr, CRT KO=7, control=5), 2) creatine (Cr, CRT KO=5, control=5), and 3) maltodextrine as placebo (P, CRT KO=5, control=5). Each treatment drug was supplied in the drinking water and the concentration was adjusted to 0.286 mg/g body weight/day, corresponding to the standard dose of creatine for human subjects (20 g/70 kg body weight/day). Short-term memory of CRT KO mice and their control littermates before and after 9-week cyclocreatine supplementation was measured using the Novel Object Recognition test that is routinely used in the art for evaluation of cognition in rodent models of the disorders of the central nervous system. […]

creatine transporter = biological target: T1, creatine transporter (Homo sapiens, UniProt P48029); conditions: normal human monocytes and macrophages; read-out: Km of creatine transport; cited from earlier work
T1 construct: endogenous in cells; host or cells: normal human monocytes and macrophages
T1 sequence (P48029 1-635): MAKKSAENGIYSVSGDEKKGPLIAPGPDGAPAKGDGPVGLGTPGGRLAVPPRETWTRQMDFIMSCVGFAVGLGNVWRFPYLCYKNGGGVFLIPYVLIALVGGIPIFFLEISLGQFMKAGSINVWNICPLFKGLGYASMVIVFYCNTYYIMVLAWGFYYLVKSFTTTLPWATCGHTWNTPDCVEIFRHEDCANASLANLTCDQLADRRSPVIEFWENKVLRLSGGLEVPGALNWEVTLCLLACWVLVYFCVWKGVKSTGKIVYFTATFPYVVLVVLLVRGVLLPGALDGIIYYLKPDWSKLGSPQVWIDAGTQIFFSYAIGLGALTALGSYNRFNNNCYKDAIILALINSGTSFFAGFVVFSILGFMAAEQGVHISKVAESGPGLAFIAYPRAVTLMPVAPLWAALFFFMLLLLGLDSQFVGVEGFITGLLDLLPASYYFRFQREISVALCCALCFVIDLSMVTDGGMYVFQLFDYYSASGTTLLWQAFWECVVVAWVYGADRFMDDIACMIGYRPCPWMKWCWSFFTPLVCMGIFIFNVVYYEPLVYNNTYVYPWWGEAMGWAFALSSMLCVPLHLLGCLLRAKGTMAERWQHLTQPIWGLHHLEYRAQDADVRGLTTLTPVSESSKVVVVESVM

CRT KO mice [3] = experiment: Morris Water Maze test; assay type: in vivo
From the text: Regarding FIG. 3, CRT brain-specific knockout male mice (CRT′ or CRT KO mice) and their control littermates (CrTf1″5″) were generated by the methods known in the art (e.g., by using the Cre-lox system and homologous recombination as described in Sauer B., Methods, 1998, 14, 381-392; the strategy for targeting the gene deletion to the brain region was based on the data described in Casanova E. et al., Genesis 2001, 31, 37-42). […] A total 29 CRT KO male mice (CRT^/y) and 28 control male mice (CRT^flox/y) at 12 months of age were used in the cyclocreatine supplementation study. The mice were randomly assigned to one of three groups that were started on one of three treatments for 9 weeks: 1) cyclocreatine (C-Cr, CRT KO=7, control=5), 2) creatine (Cr, CRT KO=5, control=5), and 3) maltodextrine as placebo (P, CRT KO=5, control=5). […] Spatial learning and memory in the CRT KO mice and their control littermates before and after 9-week cyclocreatine supplementation was measured by the Morris Water Maze test, a procedure routinely used in behavioral neuroscience to study spatial learning and memory. […] The mouse swims around the pool in search of an exit while various parameters are recorded, e.g., the time spent in each quadrant of the pool and the time taken to reach the platform (latency). […] Data is expressed as mean±SE, *P≦0.05.

CRT KO mice [4] = experiment: Levels of cyclocreatine in the brain after supplementation; assay type: in vivo; conditions: 9 weeks supplementation in drinking water, 0.286 mg/g body weight/day
From the text: Regarding FIG. 3, CRT brain-specific knockout male mice (CRT′ or CRT KO mice) and their control littermates (CrTf1″5″) were generated by the methods known in the art (e.g., by using the Cre-lox system and homologous recombination as described in Sauer B., Methods, 1998, 14, 381-392; the strategy for targeting the gene deletion to the brain region was based on the data described in Casanova E. et al., Genesis 2001, 31, 37-42). […] A total 29 CRT KO male mice (CRT^/y) and 28 control male mice (CRT^flox/y) at 12 months of age were used in the cyclocreatine supplementation study. The mice were randomly assigned to one of three groups that were started on one of three treatments for 9 weeks: 1) cyclocreatine (C-Cr, CRT KO=7, control=5), 2) creatine (Cr, CRT KO=5, control=5), and 3) maltodextrine as placebo (P, CRT KO=5, control=5). […] Levels of cyclocreatine and creatine in the organs of CRT KO mice and their control littermates before cyclocreatine supplementation were measured by the methods known in the art (e.g., creatine content was measured as described in Conn R., Clin. Chem., 1960, 6, 537-548; and cyclocreatine content was measured as described in Griffith G. R., J Biol. Chem. 1976, 251(7), 2049-2054). […] Data is expressed as mean±SE. §P≦0.0001, §§P<0.00001.

CRT KO mice [5] = experiment: Phosphorylated metabolites in the brain by in vivo magnetic resonance spectroscopy; conditions: after 9 weeks supplementation, in vivo MRS
From the text: Regarding FIG. 3, CRT brain-specific knockout male mice (CRT′ or CRT KO mice) and their control littermates (CrTf1″5″) were generated by the methods known in the art (e.g., by using the Cre-lox system and homologous recombination as described in Sauer B., Methods, 1998, 14, 381-392; the strategy for targeting the gene deletion to the brain region was based on the data described in Casanova E. et al., Genesis 2001, 31, 37-42). […] A total 29 CRT KO male mice (CRT^/y) and 28 control male mice (CRT^flox/y) at 12 months of age were used in the cyclocreatine supplementation study. The mice were randomly assigned to one of three groups that were started on one of three treatments for 9 weeks: 1) cyclocreatine (C-Cr, CRT KO=7, control=5), 2) creatine (Cr, CRT KO=5, control=5), and 3) maltodextrine as placebo (P, CRT KO=5, control=5). Each treatment drug was supplied in the drinking water and the concentration was adjusted to 0.286 mg/g body weight/day, corresponding to the standard dose of creatine for human subjects (20 g/70 kg body weight/day). The levels of phosphorylated metabolites in the brains of the CRT KO and their control littermates were measured by in vivo magnetic resonance spectroscopy using the procedures well known in the art. […] Data is expressed as mean±SE,*P≦0.05, **P≦0.01.

| levels of cyclocreatine in the brains (CRT KO mice [4]) | SMILES | clinical or spectroscopic (1H MRS) improvement [1] | short-term memory (discrimination index) (CRT KO mice [2]) | Km (creatine transporter) [µM] | spatial learning and memory (CRT KO mice [3]; before and after 9-week supplementation) | latency in finding hidden platforms (CRT KO mice [3]; versus placebo treated CRT KO mice) | levels of cyclocreatine and/or creatine phosphate in the brain (peak height ratio) (CRT KO mice [5]) |
| --- | --- | --- | --- | --- | --- | --- | --- |
|  | CN(CC(=O)O)C(=N)N [creatine] | without clinical or spectroscopic (^1H MRS) improvement | no significant changes | ~30 |  |  |  |
| increased | NC1=NCCN1CC(=O)O [cyclocreatine] |  | normalizes the short-term memory |  | improves spatial learning and memory | shorter latency | increases the levels of cyclocreatine and/or creatine phosphate |
